Data set [1] deals with T1, Rlig1-AMP (Homo sapiens, UniProt Q8N999).
T1 construct: made in house; host or cells: E. coli BL21 (DE3), pET15b-Rlig1
Description: FRET-based high-throughput screening of inhibitors for Rlig1-AMP. Type of data set: biochemical. To be noted: for 1-D Distance: difference of raw data w/o and w enzyme; for Raw data [w Enyzm]: with enzyme; for Raw data [w/o Enzym]: without enzyme.

The conditions of data set [2]: ref MedChemExpress, cited from earlier work; for solubility, DMSO: in DMSO; for solubility, H2O: in H2O.
For data set [3] the following is noted: ref MedChemExpress, cited from earlier work.
[4] abbreviates: HTS hits, normalized value (npi).
Setting [5] is: sheet HTS hits, MedChemExpress library.

In brackets after ≈: the same amount, converted by molar mass. Several values for one entry are separate records, joined by “and”; a condition that tells them apart may be missing. Equal entries are not always repeated. Where two headings read alike, the source gives them in different places.

T1 sequence (Q8N999 whole entry): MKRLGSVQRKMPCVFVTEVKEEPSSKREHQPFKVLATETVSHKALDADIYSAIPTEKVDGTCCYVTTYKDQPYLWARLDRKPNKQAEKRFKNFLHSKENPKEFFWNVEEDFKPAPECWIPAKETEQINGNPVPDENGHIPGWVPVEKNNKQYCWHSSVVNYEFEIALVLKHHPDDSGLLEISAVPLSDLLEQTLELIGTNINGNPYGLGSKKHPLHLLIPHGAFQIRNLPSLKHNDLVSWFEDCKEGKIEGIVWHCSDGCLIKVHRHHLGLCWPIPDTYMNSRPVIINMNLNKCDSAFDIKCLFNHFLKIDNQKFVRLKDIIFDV

Turning to `CC1=NN(c2ccc(C)c(C)c2)C(=O)/C1=N\Nc1cccc(-c2cccc(C(=O)O)c2)c1O` [Eltrombopag], in data set [1] (sheet HTS hits), the “1-D Distance” value worked out at 1388, the “Raw data [w Enyzm]” value is recorded as 3742 and the “Raw data [w/o Enzym]” value came to 5130. Besides, in data set [2], the “solubility, DMSO” value was 8330 µg/mL (≈ 18.8 mM) and the “solubility, H2O” value is less than 100 µg/mL.

As a reminder, the solubility is the concentration that dissolves in the medium under given conditions. Turning to `O=C1c2ccccc2-c2nc3nnnn3nc21.O=C1c2ccccc2-c2nn3nnnc3nc21` [KP372-1], in data set [1] (HTS hits), the “1-D Distance” value was found to be 385, the “Raw data [w Enyzm]” value is 14308 and the “Raw data [w/o Enzym]” value is 13923. Also, the “1-D Distance.npi” value in data set [1] (setting [4]) is reported as 99.8878. The solubility in data set [3] (DMSO) is 17.86 mg/mL and 39.83 mM.

Consider `CCn1c(=O)/c(=C2\Sc3ccccc3N2C)s/c1=C\c1cccc[n+]1CC.[Cl-]` [MKT-077], for which, in data set [1] (HTS hits), the “1-D Distance” value is 170, the “Raw data [w Enyzm]” value was 657 and the “Raw data [w/o Enzym]” value came out at 827. The “1-D Distance.npi” value in data set [1] (setting [4]) stood at 104.232. In addition, the solubility in data set [3] (DMSO) was 56.67 mg/mL and 131.18 mM. In data set [3] (H2O), the solubility is on record as less than 0.1 mg/mL.

`COC(=O)/C=C/c1ccc(O)c(O)c1` [Methyl caffeate]: in data set [1] (sheet HTS hits), the “1-D Distance” value is 1343, the “Raw data [w Enyzm]” value was determined as 9476 and the “Raw data [w/o Enzym]” value came to 10819. Further, in data set [2], the “solubility, DMSO” value was “DMSO : 33.33 mg/mL (171.64 mM; ultrasonic and warming and heat to 60°C)”.

Take `[N-]=[N+]=NCCOCCOCCOCCN(CCOCCOCCN)CCOCCOCCOCCN=[N+]=[N-]` [N-(Amino-PEG2)-N-bis(PEG3-azide)]: the “1-D Distance.npi” value in data set [1] (setting [5]) is 72.3118. Also, in data set [1] (sheet HTS hits), the “1-D Distance” value is reported as 1919, the “Raw data [w Enyzm]” value is given as 9036 and the “Raw data [w/o Enzym]” value is recorded as 10955. For the same compound, in data set [2], the “solubility, DMSO” value is reported as “DMSO : 100 mg/mL (181.60 mM; Need ultrasonic)”.

In the case of `O=C1c2ccccc2C(=O)c2c1cc(S(=O)(=O)Nc1ccc(C(F)(F)F)cc1)c(O)c2O` [PGMI-004A], in data set [1] (HTS hits), the “1-D Distance” value was 1480 and the “Raw data [w Enyzm]” value is 2222. For the same compound, the “1-D Distance.npi” value in data set [1] (setting [4]) amounted to 78.7935. In addition, in data set [3] (DMSO), the solubility was ≥ 125 mg/mL and ≥ 269.76 mM.

For the compound `Cc1[nH]c(/C=C2\C(=O)Nc3ccc(S(=O)(=O)Cc4c(Cl)cccc4Cl)cc32)c(C)c1C(=O)N1CCC[C@@H]1CN1CCCC1` [PHA-665752], in data set [1] (HTS hits), the “1-D Distance” value was determined as 1429 and the “Raw data [w Enyzm]” value is recorded as 5362. Further, the solubility in data set [3] (DMSO) was 50 mg/mL and 77.93 mM.

Turning to `CO[C@H]1/C=C/O[C@@]2(C)Oc3c(C)c(O)c4c(O)c(c(/C=N/N5CCN(C)CC5)c(O)c4c3C2=O)NC(=O)/C(C)=C\C=C\[C@H](C)[C@H](O)[C@@H](C)[C@@H](O)[C@@H](C)[C@H](OC(C)=O)[C@@H]1C` [Rifampicin], in data set [1] (sheet HTS hits), the “1-D Distance” value amounted to 268, the “Raw data [w Enyzm]” value stood at 2212 and the “Raw data [w/o Enzym]” value is given as 2480. In data set [2], the “solubility, DMSO” value is 50000 µg/mL (≈ 60.8 mM) and the “solubility, H2O” value is 1000 µg/mL (≈ 1.22 mM).

For the compound `CO[C@H]1/C=C/O[C@@]2(C)Oc3c(C)c(O)c4c(O)c(c(/C=N/N5CCN(C6CCCC6)CC5)c(O)c4c3C2=O)NC(=O)/C(C)=C\C=C\[C@H](C)[C@H](O)[C@@H](C)[C@@H](O)[C@@H](C)[C@H](OC(C)=O)[C@@H]1C` [Rifapentine], in data set [1] (sheet HTS hits), the “1-D Distance” value turned out to be 1003, the “Raw data [w Enyzm]” value was found to be 7400 and the “Raw data [w/o Enzym]” value came to 6397. In data set [2], the “solubility, DMSO” value is no less than 50000 µg/mL and the “solubility, H2O” value is less than 100 µg/mL.

With `O=C1c2ccccc2-c2nc3nonc3nc21` [SMER3], the “1-D Distance.npi” value in data set [1] (setting [5]) is on record as 102.522. For the same compound, in data set [1] (sheet HTS hits), the “1-D Distance” value amounted to 157, the “Raw data [w Enyzm]” value is listed as 13928 and the “Raw data [w/o Enzym]” value worked out at 13771. The “solubility, DMSO” value in data set [2] is listed as “DMSO : 12.5 mg/mL (55.76 mM; Need ultrasonic)”.

Take `CCOc1ccccc1OCCN[C@H](C)Cc1ccc(OC)c(S(N)(=O)=O)c1` [Tamsulosin]: in data set [1] (sheet HTS hits), the “1-D Distance” value was found to be 1837, the “Raw data [w Enyzm]” value is 8934 and the “Raw data [w/o Enzym]” value is reported as 10771. The “solubility, DMSO” value in data set [2] is on record as “DMSO : 100 mg/mL (244.79 mM; Need ultrasonic)”.

The values are drawn from article PMC11747885, “Potent inhibitors of the human RNA ligase Rlig1 highlights its role in RNA integrity maintenance under oxidative cellular stress” (Chemical Science, 2025).
